Experiment: xn = mol fraction of the nth substance listed

NC=O + O
viscosity [mPa·s]
Settings | 101 kPa | 101.33 kPa
293.15 K, x1 = 0.0753 | 1.098 | –
293.15 K, x1 = 0.1519 | 1.195 | –
293.15 K, x1 = 0.2309 | 1.318 | –
293.15 K, x1 = 0.2959 | 1.446 | –
293.15 K, x1 = 0.3852 | 1.603 | –
298.15 K, x1 = 0.00687 | 0.921 | –
298.15 K, x1 = 0.1 | 0.9871 | –
298.15 K, x1 = 0.1001 | 1.044 | –
298.15 K, x1 = 0.1998 | 1.161 | –
298.15 K, x1 = 0.2 | 1.121 | –
298.15 K, x1 = 0.212 | 1.182 | –
298.15 K, x1 = 0.3 | 1.262 | –
298.15 K, x1 = 0.3003 | 1.315 | –
298.15 K, x1 = 0.304 | 1.283 | –
298.15 K, x1 = 0.3989 | 1.463 | –
298.15 K, x1 = 0.4 | 1.43 | –
298.15 K, x1 = 0.4997 | 1.698 | –
298.15 K, x1 = 0.5 | 1.631 | –
298.15 K, x1 = 0.551 | 2.101 | –
298.15 K, x1 = 0.5997 | 1.927 | –
298.15 K, x1 = 0.6 | 1.868 | –
298.15 K, x1 = 0.6029 | 2.275 | –
298.15 K, x1 = 0.692 | 2.142 | –
298.15 K, x1 = 0.7 | 2.138 | –
298.15 K, x1 = 0.8 | 2.471 | –
298.15 K, x1 = 0.8004 | 2.508 | –
298.15 K, x1 = 0.9 | 2.881 | –
298.15 K, x1 = 0.9013 | 2.906 | –
303.15 K, x1 = 0.0964 | – | 0.8965
303.15 K, x1 = 0.1998 | – | 1.015
303.15 K, x1 = 0.2994 | – | 1.15
303.15 K, x1 = 0.3996 | – | 1.298
303.15 K, x1 = 0.4999 | – | 1.474
303.15 K, x1 = 0.5995 | – | 1.662
303.15 K, x1 = 0.6999 | – | 1.878
303.15 K, x1 = 0.8001 | – | 2.139
303.15 K, x1 = 0.9 | – | 2.432
308.15 K, x1 = 0.0964 | – | 0.8135
308.15 K, x1 = 0.1 | 0.8181 | –
308.15 K, x1 = 0.1998 | – | 0.9213
308.15 K, x1 = 0.2 | 0.9244 | –
308.15 K, x1 = 0.2994 | – | 1.047
308.15 K, x1 = 0.3 | 1.047 | –
308.15 K, x1 = 0.3996 | – | 1.182
308.15 K, x1 = 0.4 | 1.183 | –
308.15 K, x1 = 0.4999 | – | 1.34
308.15 K, x1 = 0.5 | 1.342 | –
308.15 K, x1 = 0.5995 | – | 1.506
308.15 K, x1 = 0.6 | 1.523 | –
308.15 K, x1 = 0.6999 | – | 1.697
308.15 K, x1 = 0.7 | 1.731 | –
308.15 K, x1 = 0.8 | 2.002 | –
308.15 K, x1 = 0.8001 | – | 1.926
308.15 K, x1 = 0.9 | 2.307 | 2.18
313.15 K, x1 = 0.0964 | – | 0.7424
313.15 K, x1 = 0.1001 | 0.734 | –
313.15 K, x1 = 0.1998 | 0.835 | 0.8455
313.15 K, x1 = 0.2994 | – | 0.9584
313.15 K, x1 = 0.3003 | 0.949 | –
313.15 K, x1 = 0.3989 | 1.091 | –
313.15 K, x1 = 0.3996 | – | 1.08
313.15 K, x1 = 0.4997 | 1.23 | –
313.15 K, x1 = 0.4999 | – | 1.221
313.15 K, x1 = 0.5995 | – | 1.373
313.15 K, x1 = 0.5997 | 1.402 | –
313.15 K, x1 = 0.692 | 1.545 | –
313.15 K, x1 = 0.6999 | – | 1.543
313.15 K, x1 = 0.8001 | – | 1.746
313.15 K, x1 = 0.8004 | 1.813 | –
313.15 K, x1 = 0.9 | – | 1.967
313.15 K, x1 = 0.9013 | 2.102 | –
318.15 K, x1 = 0.0964 | – | 0.6812
318.15 K, x1 = 0.1 | 0.6761 | –
318.15 K, x1 = 0.1998 | – | 0.7768
318.15 K, x1 = 0.2 | 0.7811 | –
318.15 K, x1 = 0.2994 | – | 0.8815
318.15 K, x1 = 0.3 | 0.8781 | –
318.15 K, x1 = 0.3996 | – | 0.993
318.15 K, x1 = 0.4 | 0.9948 | –
318.15 K, x1 = 0.4999 | – | 1.121
318.15 K, x1 = 0.5 | 1.12 | –
318.15 K, x1 = 0.5995 | – | 1.259
318.15 K, x1 = 0.6 | 1.259 | –
318.15 K, x1 = 0.6999 | – | 1.409
318.15 K, x1 = 0.7 | 1.42 | –
318.15 K, x1 = 0.8 | 1.604 | –
318.15 K, x1 = 0.8001 | – | 1.59
318.15 K, x1 = 0.9 | 1.812 | 1.788
323.15 K, x1 = 0.0964 | – | 0.6275
323.15 K, x1 = 0.1998 | – | 0.7165
323.15 K, x1 = 0.2994 | – | 0.8121
323.15 K, x1 = 0.3996 | – | 0.9187
323.15 K, x1 = 0.4999 | – | 1.032
323.15 K, x1 = 0.5995 | – | 1.158
323.15 K, x1 = 0.6999 | – | 1.292
323.15 K, x1 = 0.8001 | – | 1.457
323.15 K, x1 = 0.9 | – | 1.629
